Test results: patent publication US5550119A, “Phosphono substituted tetrazole derivatives as ECE inhibitors” (Ciba-Geigy Corporation, priority 1995, dated 1996)

Legend:
[1] = tested on: plasma ANF concentration; experiment: effect on rat plasma ANF concentration; format: in vivo, Male Sprague-Dawley rats; settings: about 10 mg/kg p.o., in 10% ethanol/polyethylene glycol 400; ANF infused 450 ng/kg/min i.v.
Method: The effect of the compounds of the invention on rat plasma ANF concentration can be determined as follows:
Male Sprague-Dawley rats (275-390 g) are anesthetized with ketamine (150 mg/kg)/acepromazine (10%) and instrumented with catheters in the femoral artery and vein to obtain blood samples and infuse ANF, respectively. The rats are tethered with a swivel system and are allowed to recover for 24 hours before being studied in the conscious, unrestrained state.
In this assay, plasma ANF levels are determined in the presence and absence of NEP inhibition. On the day of study, all rats are infused continuously with ANF at 450 ng/kg/min. i.v. for the entire 5 hours of the experiment. Sixty minutes after beginning the infusion, blood samples for baseline ANF measurements are obtained (time 0) and the rats are then randomly divided into groups treated with the test compound or vehicle. Additional blood samples are taken 30, 60, 120, 180 and 240 minutes after administration of the test compound.
Plasma concentrations are determined by a specific radioimmunoassay. […] The supenatant is decanted and the pellets counted in a gamma counter. […] Plasma ANF levels are expressed as a percent of those measured in vehicle-treated animals which received ANF alone (450 ng/kg/min i.v.).

[2] = tested on: DOCA-salt hypertensive rats; experiment: antihypertensive effect in DOCA-salt hypertensive rats; format: in vivo, rat; settings: 10 mg/Kg p.o., in PEG 400
Method: The antihypertensive effect can be determined in desoxycorticosterone acetate (DOCA)-salt hypertensive rats.
DOCA-salt hypertensive rats (280-380 g) are prepared by the standard method. Rats underwent a unilateral nephrectomy and one week later are implanted with silastic pellets containing 100 mg/kg of DOCA. The rats are maintained on 1% NaCl/0.2% KCl drinking water for three to five weeks until sustained hypertension is established. The antihypertensive activity is evaluated at this time.
Two days before an experiment, the rats are anesthetized with methoxyflurane and instrumented with catheters in the femoral artery to measure arterial blood pressure. Forty-eight hours later, baseline arterial pressure and heart rate are recorded during a 1 hour period. The test compound or vehicle is then administered and the same cardiovascular parameters are monitored for an additional 5 hours.

[3] = target: T1, porcine endothelin converting enzyme (Sus scrofa, UniProt A0A8W4FBH0); experiment: in vitro inhibition of porcine endothelin-converting enzyme (ECE); format: biochemical; settings: partially purified from porcine primary aortic endothelial cells
T1 construct: partially purified from porcine primary aortic endothelial cells by DE52 anion exchange column; endogenous in cells; host or cells: porcine primary aortic endothelial cells
T1 sequence (A0A8W4FBH0 1-751): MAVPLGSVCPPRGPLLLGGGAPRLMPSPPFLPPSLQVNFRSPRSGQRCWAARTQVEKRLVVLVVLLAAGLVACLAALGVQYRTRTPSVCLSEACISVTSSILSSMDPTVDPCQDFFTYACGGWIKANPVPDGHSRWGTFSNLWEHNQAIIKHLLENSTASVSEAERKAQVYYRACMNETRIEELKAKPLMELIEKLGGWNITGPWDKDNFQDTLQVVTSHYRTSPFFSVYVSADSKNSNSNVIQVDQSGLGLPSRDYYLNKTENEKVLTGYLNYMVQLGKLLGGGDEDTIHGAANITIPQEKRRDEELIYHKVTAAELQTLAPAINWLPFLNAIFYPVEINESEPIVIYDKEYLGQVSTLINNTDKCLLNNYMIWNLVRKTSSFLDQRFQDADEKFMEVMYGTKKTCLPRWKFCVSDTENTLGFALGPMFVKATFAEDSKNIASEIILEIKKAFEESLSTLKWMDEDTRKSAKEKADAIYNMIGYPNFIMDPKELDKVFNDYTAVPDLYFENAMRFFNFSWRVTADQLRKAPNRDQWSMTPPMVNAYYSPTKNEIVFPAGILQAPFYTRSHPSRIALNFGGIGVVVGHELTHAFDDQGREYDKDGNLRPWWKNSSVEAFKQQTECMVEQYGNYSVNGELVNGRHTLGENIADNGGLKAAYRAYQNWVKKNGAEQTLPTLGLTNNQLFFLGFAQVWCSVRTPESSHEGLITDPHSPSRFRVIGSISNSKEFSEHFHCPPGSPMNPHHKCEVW
Excerpt: Endothelin converting enzyme (ECE) is partially purified from porcine primary aortic endothelial cells by DE52 anion exchange column chromatrography and its activity is quantified by radioimmunoassay as described in Anal. Biochem. 213, 434-436 (1993). The ECE inhibition can be determined as described in Biochem. Mol. Biol. Int. 31, (5), 861-867 (1993), by radioimmunoassay to measure ET-1 formed from big ET-1.

[4] = tested on: big ET-1 induced pressor response; experiment: inhibition of big ET-1 induced pressor response in conscious spontaneously hypertensive rats (SHR); format: in vivo; settings: continuous infusion of 5 mg/Kg/day; over 60 minutes; vs vehicle control
Method: ECE inhibition can also be determined in vivo by measuring the inhibition big ET-1 induced pressor response in conscious spontaneously hypertensive rats (SHR), e.g. as described in Biochem. Biophys. Res. Communic. 204, 407-412 (1994).
Male SHR (16-18 weeks of age) are administered either test compound or vehicle (1M NaHCO3) via an osmotic minipump implated subcutaneously. On day 5 femoral arterial and venous catheters are placed in anesthetized rats for the measurement of MAP (mean arterial pressure) and for test compound administration, respectively. After a 48 hour recovery period, MAP is recorded (day 7) through the arterial catheter connected to a pressure transducer. Blood pressure and heart rate are allowed to stabilize for 30 minutes before ganglion blockade is performed using chlorisondamine ([…] i.v.). Approximately 15 minutes later, a bolus dose of big ET-1 (0.25 nmol/kg i.v.) is administered to both vehicle- and test compound treated rats. The change in blood pressure in response to big ET-1 is then compared between the two groups of rats at 1, 5, 10, 15, 30 and 60 min after dosing using a two-way ANOVA.

[5] = tested on: spontaneous hypertensive rats; experiment: mean arterial pressure of spontaneous hypertensive rats using telemetry; format: in vivo, rat; settings: continuous infusion of 5 mg/Kg/day for 13 days, no exogenous big ET-1

Row | SMILES | plasma ANF levels [1] | blood pressure [2] | IC50 [3] | reduction of big ET-1 induced pressor response [4] | mean arterial pressure [5]
1 | O=P(CN[C@@H](Cc1ccc(-c2ccccc2)cc1)c1nnn[nH]1)(Oc1ccccc1)Oc1ccccc1 | significant increases in plasma ANF levels | significant reduction in blood pressure | – | – | –
2 | O=P(O)(O)CN[C@@H](Cc1ccc(-c2ccccc2)cc1)c1nnn[nH]1 [(S)-[2-(Biphenyl-4-yl)-1-(1H-tetrazol-5-yl)-ethylamino]-methylphosphonic acid] | – | – | ~1.1 µM | significant difference in reduction of big ET-1 induced pressor response | sustained reduction in the mean arterial pressure
